Reference: PubChem BioAssay AID1259411 (Chemical Carcinogenesis Research Information System (CCRIS), 2018)
The source made the active and inactive calls. How the calls were made is not given here.

Test system: rodent carcinogenicity bioassays, tumor incidence
Test: CCRIS carcinogenicity studies
Method in brief: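 Archive of carcinogenicity, mutagenicity, tumor promotion and tumor inhibition results drawn from journals, NCI reports and other sources, expert-reviewed; covers 1985-2011 and is no longer updated.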

CC(C)C/C=N/N(C)C=O
carcinogen call (Species: MOUSE, Strain/Sex: SWISS/FEMALE, Route: GAVAGE, Dose: 0, 50 UG/G BW DISSOLVED IN PROPYLENE GLYCOL 1/WK FOR 2 WK (STUDY DURATION: LIFETIME), Tumor Site: Type of Lesion: THYROID: TUMOR, LUNG: TUMOR): active; positive | carcinogen call (Species: MOUSE, Strain/Sex: SWISS/FEMALE, Route: GAVAGE, Dose: 0, 50 UG/G BW DISSOLVED IN PROPYLENE GLYCOL 1/WK FOR 53 WK (STUDY DURATION: LIFETIME), Tumor Site: Type of Lesion: LUNG: TUMOR, LIVER: TUMOR, GALLBLADDER: TUMOR, Tumor Site: Type of Lesion: LUNG: TUMOR, LIVER: TUMOR, GALLBLADDER: TUMOR): active; positive | carcinogen call (Species: MOUSE, Strain/Sex: SWISS/MALE, Route: GAVAGE, Dose: 0, 50 UG/G BW DISSOLVED IN PROPYLENE GLYCOL 1/WK FOR 2 WK (STUDY DURATION: LIFETIME), Tumor Site: Type of Lesion: LUNG: TUMOR, THYROID: TUMOR): active; positive | carcinogen call (Species: MOUSE, Strain/Sex: SWISS/MALE, Route: GAVAGE, Dose: 0, 50 UG/G BW DISSOLVED IN PROPYLENE GLYCOL 1/WK FOR 53 WK (STUDY DURATION: LIFETIME), Tumor Site: Type of Lesion: LUNG: TUMOR, LIVER: TUMOR, GALLBLADDER: TUMOR, PREPUTIAL GLAND: TUMOR, Tumor Site: Type of Lesion: LUNG: TUMOR, LIVER: TUMOR, GALLBLADDER: TUMOR, PREPUTIAL GLAND: TUMOR): active; positive

COP(=O)(NC(C)=O)SC (stereo not drawn)
carcinogen call (Species: Mouse, Strain/Sex: CD-1/Female, Route: Oral, Dose: 0, 50, 250, 1000 ppm (0; 8; 42; 167 mg/kg/d) in feed for 104 wk, Dose: 0, 50, 250, 1000 ppm (0; 8; 42; 167 mg/kg/d) in feed for 104 wk, Tumor Site: Type of Lesion: Liver: Hepatocellular carcinoma and adenoma (highest dose only)): inactive; negative; purity = 92.7, 92.1% | carcinogen call (Species: Mouse, Strain/Sex: CD-1/Male, Route: Oral, Dose: 0, 50, 250, 1000 ppm (0; 7; 36; 146 mg/kg/d) in feed for 104 wk, Dose: 0, 50, 250, 1000 ppm (0; 7; 36; 146 mg/kg/d) in feed for 104 wk): inactive; negative; purity = 92.7, 92.1%

C=C1C/C(=C/C)C(=O)O[C@@H]2CCN3CC=C(COC(=O)[C@@]1(O)CO)[C@H]23
carcinogen call (Species: MOUSE, Strain/Sex: B6C3F1/FEMALE, Route: GAVAGE, Dose: 0, 3 MG/KG IN 0.1 M PHOSPHATE BUFFER 5 D/WK FOR 105 WK (STUDY DURATION: 105 WK), Tumor Site: Type of Lesion: LUNG (ALVEOLAR/BRONCHIOLAR): ADENOMA, ADENOMA OR CARCINOMA): active; positive | carcinogen call (Species: MOUSE, Strain/Sex: B6C3F1/MALE, Route: GAVAGE, Dose: 0, 0.1, 0.3, 1, 3 MG/KG IN 0.1 M PHOSPHATE BUFFER 5 D/WK FOR 105 WK (STUDY DURATION: 105 WK), Dose: 0, 0.1, 0.3, 1, 3 MG/KG IN 0.1 M PHOSPHATE BUFFER 5 D/WK FOR 105 WK (STUDY DURATION: 105 WK), Tumor Site: Type of Lesion: LIVER: HEMANGIOSARCOMA): active; positive | carcinogen call (Species: RAT, Strain/Sex: F344/FEMALE, Route: GAVAGE, Dose: 0, 0.01, 0.033, 0.1, 0.33 MG/KG IN 0.1 M PHOSPHATE BUFFER 5 D/WK FOR 105 WK (STUDY DURATION: 105 WK), Dose: 0, 0.01, 0.033, 0.1, 0.33 MG/KG IN 0.1 M PHOSPHATE BUFFER 5 D/WK FOR 105 WK (STUDY DURATION: 105 WK)): inactive; negative | carcinogen call (Species: RAT, Strain/Sex: F344/FEMALE, Route: GAVAGE, Dose: 0, 1 MG/KG IN 0.1 M PHOSPHATE BUFFER 5 D/WK FOR 97 WK (STUDY DURATION: 97 WK), Tumor Site: Type of Lesion: LIVER: HEMANGIOSARCOMA, HEPATOCELLULAR ADENOMA, ADENOMA OR CARCINOMA, HEMATOPOIETIC SYSTEM: MONONUCLEAR CELL LEUKEMIA): active; positive | carcinogen call (Species: RAT, Strain/Sex: F344/MALE, Route: GAVAGE, Dose: 0, 1 MG/KG IN 0.1 M PHOSPHATE BUFFER 5 D/WK FOR 72 WK (STUDY DURATION: 72 WK), Tumor Site: Type of Lesion: LIVER: HEMANGIOSARCOMA, HEPATOCELLULAR ADENOMA, HEMATOPOIETIC SYSTEM: MONONUCLEAR CELL LEUKEMIA): active; positive

C[C@H]1C(=O)O[C@@H]2CCN3CC=C(COC(=O)[C@](C)(O)[C@]1(C)O)[C@H]23
carcinogen call (Species: RAT, Route: ORAL, Tumor Site: Type of Lesion: LIVER): active; positive

CC(C)=CCl
carcinogen call (Species: MOUSE, Strain/Sex: B6C3F1/FEMALE, Route: GAVAGE, Dose: 0, 100, 200 MG/KG IN CORN OIL 5 D/WK FOR 102 WK, Dose: 0, 100, 200 MG/KG IN CORN OIL 5 D/WK FOR 102 WK, Tumor Site: Type of Lesion: FORESTOMACH: SQUAMOUS CELL CARCINOMA, SQUAMOUS CELL PAPILLOMA): active; positive | carcinogen call (Species: MOUSE, Strain/Sex: B6C3F1/MALE, Route: GAVAGE, Dose: 0, 100, 200 MG/KG IN CORN OIL 5 D/WK FOR 102 WK, Dose: 0, 100, 200 MG/KG IN CORN OIL 5 D/WK FOR 102 WK, Tumor Site: Type of Lesion: FORESTOMACH: SQUAMOUS CELL CARCINOMA, SQUAMOUS CELL PAPILLOMA, PREPUTIAL GLAND: SQUAMOUS CELL CARCINOMA): active; positive | carcinogen call (Species: RAT, Strain/Sex: F344/FEMALE, Route: GAVAGE, Dose: 0, 100, 200 MG/KG IN CORN OIL 5 D/WK FOR 103 WK, Dose: 0, 100, 200 MG/KG IN CORN OIL 5 D/WK FOR 103 WK, Tumor Site: Type of Lesion: NASAL CAVITY: CARCINOMA (NOS), CARCINOMA (NOS) OR SQUAMOUS CELL CARCINOMA, ADENOCARCINOMA, ESOPHAGUS: SQUAMOUS CELL CARC): active; positive | carcinogen call (Species: RAT, Strain/Sex: F344/MALE, Route: GAVAGE, Dose: 0, 100, 200 MG/KG IN CORN OIL 5 D/WK FOR 103 WK, Dose: 0, 100, 200 MG/KG IN CORN OIL 5 D/WK FOR 103 WK, Tumor Site: Type of Lesion: NASAL CAVITY: CARCINOMA (NOS), SQUAMOUS CELL CARCINOMA, ADENOCARCINOMA, ESOPHAGUS: SQUAMOUS CELL PAPILLOMA, SQUAMOUS CEL): active; positive

CCSC(=O)N(CC)C1CCCCC1
carcinogen call (Species: Mouse, Strain/Sex: C57 BL/10JfCD-1/Alpk/Female (50/group), Route: Oral, Dose: 0, 300, 1,000, 3,000 ppm of 98.1% pure cycloate in feed for 18 mo, Dose: 0, 300, 1,000, 3,000 ppm of 98.1% pure cycloate in feed for 18 mo): inactive; negative | carcinogen call (Species: Mouse, Strain/Sex: C57 BL/10JfCD-1/Alpk/Male (50/group), Route: Oral, Dose: 0, 300, 1,000, 3,000 ppm of 98.1% pure cycloate in feed for 18 mo, Dose: 0, 300, 1,000, 3,000 ppm of 98.1% pure cycloate in feed for 18 mo): inactive; negative

Oc1cc2c(c3ccc4ccccc4c13)CCC2
carcinogen call (Species: MOUSE, Strain/Sex: TO/MALE, FEMALE, Route: DERMAL, Dose: 0, 50 UG (10 µL OF A 0.5% W/V TOLUENE SOLUTION) 2/WK FOR 70 WK (STUDY DURATION: 70 WK), Tumor Site: Type of Lesion: SKIN: PAPILLOMA OR CARCINOMA): active; positive

COS(=O)(=O)OC
carcinogen call (Species: RAT, Route: INHALATION, Tumor Site: Type of Lesion: NASAL CAVITY, BRAIN): active; positive | carcinogen call (Species: RAT, Route: SUBCUTANEOUS, Tumor Site: Type of Lesion: INJECTION SITE): active; positive

Nc1cc2c3c(ccc2c2ccccc12)[C@H](O)[C@@H](O)C=C3
carcinogen call (Species: MOUSE, Strain/Sex: SWISS/FEMALE, Route: INTRAPERITONEAL, Dose: 0, 100 NMOL (TOTAL DOSE) 1/7, 2/7 AND 4/7 ADMINISTERED ON DAYS 1, 8 AND 15 OF LIFE RESPECTIVELY (STUDY DURATION: 32 WK), Tumor Site: Type of Lesion: LUNG: TUMOR): active; positive | carcinogen call (Species: MOUSE, Strain/Sex: SWISS/MALE, Route: INTRAPERITONEAL, Dose: 0, 100 NMOL (TOTAL DOSE) 1/7, 2/7 AND 4/7 ADMINISTERED ON DAYS 1, 8 AND 15 OF LIFE RESPECTIVELY (STUDY DURATION: 32 WK), Tumor Site: Type of Lesion: LUNG: TUMOR, LIVER: TUMOR): active; positive
